Columns and labels:
[1] = In-vivo test: serum cholesterol level in hypercholesterolemic rats; parameters: species or system male Sprague-Dawley rat; settings: oral, once a day, 10 mg per kg; food containing 1% of cholesterol for 2 days
Method: A male Sprague-Dawley rat was made to get hypercholesterolemia by feeding with food containing 1% of cholesterol for 2 days. A compound of the present invention (compound of Example 1, 54, 17 or 64) was orally administered to the rat once a day in a dose of 10 mg per kg of the weight.

ACAT = target: T1, ACAT (Oryctolagus cuniculus, UniProt G1SFD9); test: ACAT-inhibitory activity (in-vitro test, esterification of cholesterol with oleoyl-CoA, microsome of the small intestine of a rabbit); format: biochemical
T1 construct: by using the microsome of the small intestine of a rabbit as an enzyme source; from tissue; host or cells: rabbit small intestine, microsomes
T1 sequence (G1SFD9 1-524): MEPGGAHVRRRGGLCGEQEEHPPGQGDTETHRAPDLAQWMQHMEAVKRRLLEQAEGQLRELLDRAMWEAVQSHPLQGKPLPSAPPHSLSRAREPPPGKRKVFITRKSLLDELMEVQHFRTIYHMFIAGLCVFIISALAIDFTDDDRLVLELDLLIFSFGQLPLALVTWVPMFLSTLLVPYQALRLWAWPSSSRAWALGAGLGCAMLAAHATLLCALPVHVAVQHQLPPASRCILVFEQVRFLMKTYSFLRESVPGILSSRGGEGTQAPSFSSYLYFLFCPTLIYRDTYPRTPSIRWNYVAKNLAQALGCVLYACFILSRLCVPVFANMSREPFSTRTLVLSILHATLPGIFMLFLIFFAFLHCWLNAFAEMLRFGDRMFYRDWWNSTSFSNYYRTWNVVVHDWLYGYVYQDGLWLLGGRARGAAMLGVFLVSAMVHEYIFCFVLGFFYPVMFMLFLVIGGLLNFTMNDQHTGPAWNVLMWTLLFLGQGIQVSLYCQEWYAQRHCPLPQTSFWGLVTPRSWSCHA
Method: Representative compounds according to the present invention were examined for ACAT-inhibitory activity according to the in-vitro test proposed in Journal of Lipid Research, vol.
The inhibitory activity of a test compound against esterification or acylation of cholesterol with oleoyl CoA or acyl-CoA was evaluated by using the microsome of the small intestine of a rabbit as an enzyme source and determining the amount of a radioisotope-labeled cholesterol oleate made from a radioisotope-labeled oleoyl-CoA and (free) cholesterol.

[2] = One week toxic study in rats; format: in vivo, Sprague-Dawley rats; settings: oral, 100 mg/kg daily for one week; for toxicity (overall finding of one week study): same condition
Method: The compound was orally given to animals at daily does of 100 mg/kg for one week.

| Structure (SMILES) | lowering of serum cholesterol level [1] | IC50 (ACAT) [nM] | toxicity (overall finding of one week study) [2] | toxicological symptom during the administration [2] |
| --- | --- | --- | --- | --- |
| CCCCCNC(=O)Nc1c(OCCCN2CCN(c3ccccc3)CC2)cccc1N(C)C [Example 64, N-[6-N,N-Dimethylamino-2-{3-(4-phenylpiperazin-1-yl)propoxy}]phenyl-N'-pentylurea] | effectively lowered | 17 |  |  |
| CCCCCNC(=O)Nc1c(C)cccc1OCCCn1cnc(-c2ccccc2)c1C [Example 127, N-[6-Methyl-2-{3-(5-methyl-4-phenyl-1H-imidazol-1-yl)-propoxy}]phenyl-N'-pentylurea] |  | 100 | no toxic substances |  |
| CCCCNC(=O)Nc1c(C)cccc1OCCCn1cnc(-c2ccccc2)c1 [Example 54, N-[6-Methyl-2-{3-(4-phenyl-1H-imidazol-1-yl)propoxy}]-phenyl-N'-butylurea] | effectively lowered | 48 |  |  |
| CCCCNC(=O)Nc1c(C)cccc1OCCCn1cnc(-c2ccccc2)c1CC [Example 81, N-[6-Methyl-2-{3-(5-ethyl-4-phenyl-1H-imidazol-1-yl)-propoxy}]phenyl-N'-butylurea] |  |  | no toxic substance | No toxicological sympton was observed |
| CCCCNC(=O)Nc1c(OCCCn2cnc(-c3ccccc3)c2)cccc1N(C)C [Example 2, N-[6-N,N-Dimethylamino-2-{3-(4-phenyl-1H-imidazol-1-yl)propoxy}]phenyl-N'-butylurea] |  |  | no toxic substances |  |
| CCCCCNC(=O)Nc1c(C)cccc1OCCCn1cnc(-c2ccccc2)c1Cl [Example 93, N-[6-Methyl-2-{3-(5-chloro-4-phenyl-1H-imidazol-1-yl)-propoxy}]phenyl-N'-pentylurea] |  | 49 |  |  |
| CCCCCCNC(=O)Nc1c(OCCCn2cnc(-c3ccccc3)c2)cccc1N(C)C [Example 17, N-[6-N,N-Dimethylamino-2-{3-(4-phenyl-1H-imidazol-1-yl)propoxy}]phenyl-N'-hexylurea] | effectively lowered | 31 | no toxic substances |  |
| CCCCCNC(=O)Nc1c(OCCCn2cnc(-c3ccccc3)c2)cccc1N(C)C [Example 5, N-[6-N,N-Dimethylamino-2-{3-(4-phenyl-1H-imidazol-1-yl)propoxy}]phenyl-N'-pentylurea] |  |  | no toxic substances |  |
| CCCCCNC(=O)Nc1c(OCCCn2cnc(-c3ccccc3)c2C)cccc1N(C)C [Example 1, N-[6-N,N-Dimethylamino-2-{3-(5-methyl-4-phenyl-1H-imidazol-1-yl)propoxy}]phenyl-N'-pentylurea] | effectively lowered | 43 | no toxic substances |  |
| CCCCNC(=O)Nc1c(C)cccc1OCCCn1cnc(-c2ccccc2)c1C(C)C [Example 80, N-[6-Methyl-2-[3-{5-(1-methylethyl)-4-phenyl-1H-imidazol-1-yl}propoxy]]phenyl-N'-butylurea] |  | 88 | no toxic substances |  |
